{
  "source": "patent US20120003191A1",
  "about": "“VALPROIC ACID, DERIVATIVES, ANALOGUES, AND COMPOSITIONS INCLUDING SAME AND METHODS FOR THEIR THERAPEUTIC USE” (priority 2009, published 2012)",
  "key": {"mdx/utrn−/− mice": {"system": "mdx/utrn−/− mice", "assay": "Quantification of Evan's blue dye uptake in quadriceps", "type": "in vivo, mouse", "settings": "240 mg/kg i.p. twice daily for 5 weeks", "procedure": "mdx/utrn−/− mice lack both dystrophin and utrophin, and were bred and genotyped as reported in Burkin, et al., Enhanced expression of the alpha 7 beta 1 integrin reduces muscular dystrophy and restores viability in dystrophic mice, J. Cell Biol. 152:1207-18 (2001). 240 mg/kg body weight of VPA was injected intraperitoneally twice daily into mdx/utrn^−/− mice (n=9) starting at 3 weeks of age, for a period of 5 weeks. Control mice were injected with saline (n=9). Body-weights were determined daily. On the 35th day of injection of VPA, mice were injected intraperitoneally with 100 mg/kg body weight of Evan's blue dye. After 24 hours, the quadriceps muscles were collected, frozen in liquid nitrogen-cooled isopentane and stored at −80° C. 8 μm cryosections of quadriceps were fixed in ice-cold methanol for 1 minute and washed in PBS three times for 5 minutes each. To delineate muscle fibers, the sections were incubated for 10 minutes at room temperature in FITC-conjugated wheat-germ agglutinin (WGA) (Invitrogen) diluted 1:500 in PBS. The sections were washed three times in PBS, 5 minutes each time, and the percentage of Evan's blue dye positive fibers in three sections taken 40 μm apart were counted (approximately 5000 fibers total) for each mouse."}, "ERK": {"system": "ERK", "assay": "Western blotting of activated ERK in α7+/− myotubes", "type": "cell-based, mouse", "settings": "VPA treated myotubes", "procedure": "(§1) α7^+/− myogenic cells were cultured on 1% gelatin-coated plastic plates in Ham's F-10 growth medium (20% FBS, 0.5% chick embryo extract, 5 ng/ml bFGF, 2 mM glutamine, 100 U/ml penicillin and 100 μg/ml streptomycin). After six passages, cells were grown in DMEM containing 20% FBS, 0.5% chick embryo extract, 2 mM glutamine, 100 U/ml penicillin and 100 μg/ml streptomycin. Differentiation was induced by switching the medium to DMEM containing 2% horse serum and antibiotics when cells attained 90% confluence. After 48 hours of differentiation, 2 mM VPA was added and supplied fresh every 24 hours. Wortmannin was used at 100 nM and added fresh every 24 hours.\n(§2) Cell lysates of differentiating cells on 60 mm dishes were prepared as follows: the cells were washed twice with PBS and 200 μl Triton X-100 lysis buffer (2% Triton X-100, 20 mM Tris-Cl, pH 7.4, 150 mM NaCl, 1 mM EDTA, 1 mM EGTA, 2.5 mM NaPPi, 1 mM β-glycerophosphate, 1 mM sodium vanadate, 1:200 Protease Inhibitor Cocktail (EMD Chemicals, San Diego, Calif.) and 1 mM PMSF) were added. […] Protein concentrations were determined by the Bradford assay. […] The supernatants were collected and protein concentrations were determined spectrophotometrically at OD260 and OD280. […] ImageQuant analysis software (Molecular Dynamics, Sunnyvale, Calif.) was used to quantify band intensity."}, "mTOR": {"system": "mTOR", "assay": "Western blotting of activated mTOR in α7+/− myotubes", "type": "cell-based, mouse", "settings": "VPA for 48 or 72 hours", "procedure": "as §1, §2"}, "α7+/− myotubes": {"system": "α7+/− myotubes", "assay": "Quantification of myotube hypertrophy", "type": "cell-based, mouse", "procedure": "as §1\n[…] The cells were stained with anti-myosin heavy chain antibody (MF-20, 1:3 in 1% BSA in PBS) and FITC-conjugated donkey anti-mouse secondary antibody (1:200 in 1% BSA in PBS) for 1 hour each, and mounted in Vectashield with DAPI (Vector Laboratories, Burlingame, Calif.). Micrographs of ten fields were taken for VPA-treated and control myotubes using a Leica DMRXA2 microscope (Leica Microsystems, Germany), AxioCam digital camera (Zeiss Inc., Thorwood, N.Y.) and Openlab software (Improvision, Lexington, Mass.). Areas of myosin heavy chain positive myotubes were measured using Openlab software and the numbers of nuclei in each myotube were counted.\n(§3) To test whether Akt activation by VPA in α7^+/− myotubes is dependent on PI3K, α7^+/− cells were differentiated for 48 hours and treated for 72 hours with 2 mM VPA with or without 100 nM Wortmannin. Fresh drugs were added every 24 hours. Phase-contrast micrographs of the cultures were captured at the end of 72 hours of treatment. To determine status of Akt activation in the cultures, α7^+/− myotubes were treated as above and protein extracts were made at the end of 72 hours of treatment using a 2% Triton X-100 extraction buffer (see below). Immunoblotting for phospho- and total Akt were done as detailed below."}, "Akt": {"system": "Akt", "assay": "Western blotting of activated and total Akt in α7+/− myotubes", "type": "cell-based, mouse", "procedure": "α7^+/− myogenic cells were cultured on 1% gelatin-coated plastic plates in Ham's F-10 growth medium (20% FBS, 0.5% chick embryo extract, 5 ng/ml bFGF, 2 mM glutamine, 100 U/ml penicillin and 100 μg/ml streptomycin). After six passages, cells were grown in DMEM containing 20% FBS, 0.5% chick embryo extract, 2 mM glutamine, 100 U/ml penicillin and 100 μg/ml streptomycin. Differentiation was induced by switching the medium to DMEM containing 2% horse serum and antibiotics when cells attained 90% confluence. […] Wortmannin was used at 100 nM and added fresh every 24 hours.\nas §3\nCell lysates of differentiating cells on 60 mm dishes were prepared as follows: the cells were washed twice with PBS and 200 μl Triton X-100 lysis buffer (2% Triton X-100, 20 mM Tris-Cl, pH 7.4, 150 mM NaCl, 1 mM EDTA, 1 mM EGTA, 2.5 mM NaPPi, 1 mM β-glycerophosphate, 1 mM sodium vanadate, 1:200 Protease Inhibitor Cocktail (EMD Chemicals, San Diego, Calif.) and 1 mM PMSF) were added. The cells were scraped and transferred into Eppendorf tubes, the cell suspensions were triturated and centrifuged at 8000×g at 4° C. for 10 minutes, and the supernatants were collected. Lysates from mouse skeletal muscle were prepared as follows: the quadriceps muscles were dissected out, snap-frozen in liquid nitrogen and pulverized using a mortar and pestle. The powdered muscles were collected in Eppendorf tubes, 500 μl of Triton X-100 lysis buffer were added, rotated at 4° C. for 30 minutes, centrifuged at 8000×g for 10 minutes and the supernatants were collected. Protein concentrations were determined by the Bradford assay. SDS extracts of muscle were made by boiling powdered muscle in extraction buffer (100 mM Tris-Cl, pH 8.0, 10% SDS, 10 mM EDTA and 10% glycerol) for 10 minutes, vortexing vigorously, and centrifuging at 8000×g for 10 minutes. The supernatants were collected and protein concentrations were determined spectrophotometrically at OD260 and OD280. SDS-PAGE was carried out using 50 μg of protein for each sample and separated proteins were transferred to nitrocellulose membranes. For western blotting using antibodies against signaling proteins, membranes were blocked in 5% BSA in TBST for 2 hours at room temperature. For all other blots, incubations were done in 5% milk in TBST overnight at 4° C. The membranes were incubated overnight at 4° C. with primary antibodies diluted 1:1000 in 1% BSA in TBST. After washing in 1% BSA in TBST, blots were incubated for 1 hour in HRP-conjugated secondary antibodies diluted 1:5000 in 1% BSA in TBST. Blots were processed using the ECL kit (Amersham Biosciences, Piscataway, N.J.) and bands were visualized with Kodak Biomax MR film (Kodak, Rochester, N.Y.). ImageQuant analysis software (Molecular Dynamics, Sunnyvale, Calif.) was used to quantify band intensity."}, "[1]": {"system": "CD8 positive cytotoxic T-cells", "assay": "Quantification of CD8 positive cells in muscle", "type": "in vivo, mouse", "settings": "240 mg/kg i.p. twice daily for 5 weeks, quadriceps", "experimental": "240 mg/kg body weight of VPA was injected intraperitoneally twice daily into mdx/utrn^−/− mice (n=9) starting at 3 weeks of age, for a period of 5 weeks. Control mice were injected with saline (n=9). Body-weights were determined daily. 8 μm thick cryosections of the quadriceps muscles of saline and VPA injected mice were made. Cytotoxic T-cells were detected with a FITC-labeled rat anti-mouse CD8a antibody (BD Pharmingen, San Diego, Calif.) as follows: the sections were fixed in 4% paraformaldehyde for 5 minutes, washed in PBS three times for 5 minutes each, blocked with 5% BSA/PBS for 1 hour, anti-CD8 antibody added at 1:1000 dilution for 1 hour and washed in 1% BSA/PBS three times for 5 minutes each. The sections were mounted in Vectashield containing DAPI (Vector Laboratories). The number of CD8 positive cells and the total number of nuclei in the same field were counted in ten random fields for each mouse. The ratio of the number of CD positive cells to the total number of nuclei were calculated, averaged and plotted for the saline and VPA treated groups."}, "p70S6K": {"system": "p70S6K", "assay": "Western blotting of activated p70S6K in α7+/− myotubes", "type": "cell-based, mouse", "settings": "VPA for 48 or 72 hours", "procedure": "as §1, §2"}},
  "data": [
    {"smiles": "CCCC(CCC)C(=O)O", "note": "[VPA, valproic acid]", "values": [
      {"measurement": "fewer damaged (Evans blue positive) fibers than saline", "setting": "mdx/utrn−/− mice", "value": "approximately 2 fold"},
      {"measurement": "levels of activated ERK", "setting": "ERK", "value": "significantly lower levels"},
      {"measurement": "levels of activated mTOR", "setting": "mTOR", "value": "higher levels"},
      {"measurement": "number of nuclei per myotube compared to untreated controls", "setting": "α7+/− myotubes; 2 mM VPA", "value": "greater numbers of nuclei per myotube"},
      {"measurement": "myotube area per nucleus, greater than control", "setting": "α7+/− myotubes; 2 mM VPA, 72 hours", "value": 1.6, "unit": "fold"},
      {"measurement": "myotube size compared to controls (micrographs)", "setting": "α7+/− myotubes; 2 mM VPA, 72 hours", "value": "larger compared to controls"},
      {"measurement": "myotube size compared to controls after 1 hour exposure", "setting": "α7+/− myotubes; 30 mM VPA for 1 hour, observed 72 hours later", "value": "larger compared to controls"},
      {"measurement": "levels of activated Akt, time course", "setting": "Akt; 2 mM VPA daily, extracts every 24 hours up to 144 hours", "value": "higher levels of activated Akt at all time-points"},
      {"measurement": "concentration of maximal Akt activation", "setting": "Akt; 1 hour exposure", "value": 30, "unit": "mM"},
      {"measurement": "levels of activated Akt", "setting": "Akt; VPA for 48 or 72 hours", "value": "higher levels"},
      {"measurement": "higher levels of Akt in VPA treated cultures", "setting": "Akt; beyond 96 hours", "value": "2 to 3", "unit": "fold"},
      {"measurement": "time to Akt activation", "setting": "Akt; various concentrations of VPA, two-day old differentiating cultures", "value": "≤ 1", "unit": "h"},
      {"measurement": "decrease of CD8 positive cytotoxic T-cell content", "setting": "[1]", "value": "approximately 2.1 fold"},
      {"measurement": "levels of activated p70S6K", "setting": "p70S6K", "value": "higher levels"}
    ]}
  ]
}
